Test results published in patent publication US5445951A, “Regioselective enzymatic deacylation of sucrose esters in anhydrous organic media” (priority 1993, dated 1995).

Tests used:
[1] = test system: lipase AY 30; experiment: Effect of the solvent on lipase AY 30 SOA deacetylation; format: biochemical, Candida cylindracea; details: lipase AY 30, solvent as labelled, 24 hrs
Procedure: Identical enzyme catalyzed SOA deacetylations were run in numerous anhydrous solvents. After 24 hrs incubation an aliquot was analyzed by HPLC.
(§1) Enzyme and Solvent Screening for SOA Deacetylation. A scintillation vial was charged successively with 100 mg of powdered enzyme as received or prepared as described and 1.0 ml of 20 mM sucrose octaacetate (SOA) dissolved in an organic solvent. Following a 5 sec sonication, the vial was incubated in a controlled-temperature shaker at 45° C. and 300 RPM for 24 hrs. A 200 μl aliquot of the reaction mixture was withdrawn and centrifuged. The supernatant was collected and evaporated under a stream of N2. The residue was reconstituted in 200 μl of acetonitrile and 10 μl of this solution was analyzed by HPLC.

[2] = test system: protease type XXIII; experiment: Effect of the solvent on protease type XXIII catalyzed deacylation of SOP; format: biochemical, Aspergillus oryzae; details: 24 hrs; for SheptaP's (8.3 min): HPLC peak 8.3 min; for SheptaP's (8.9 min): HPLC peak 8.9 min; for SheptaP's (9.9 min): HPLC peak 9.9 min; for SOP: solvent as labelled
Procedure: (§2) Identical SOP deacylations were performed with lipase AY 30 or protease type XXIII in numerous anhydrous organic solvents, as shown in Tables 12 and 13.
as §1, with “Solvent” for “Enzyme and Solvent”, “screening” for “Screening”, “SOP deacylation.” for “SOA Deacetylation.”, “lipase AY 30” for “powdered enzyme as received”, “protease type XXIII” for “prepared”, “octapropionate (SOP) and 200mM butanol” for “octaacetate (SOA)”

[3] = test system: lipase AY 30; experiment: Effect of the solvent on lipase AY 30 catalyzed deacylation of SOP; format: biochemical, Candida cylindracea; details: for ShexaP (4.2 min) / SheptaP's (8.9 min) / SheptaP's (9.4 min) / SheptaP's ([…]): lipase AY 30, 24 hrs; for ShexaP (4.2 min): HPLC peak 4.2 min; for SheptaP's (8.9 min): HPLC peak 8.9 min; for SheptaP's (9.4 min): HPLC peak 9.4 min; for SheptaP's ([…]): HPLC peak […]; for SOA: lipase AY 30, solvent as labelled, 200 mM butanol, 24 hrs, peak 21.4 min; as to SheptaP's ([…]): HPLC peak 8.2 min
Procedure: as §2
as §1, with “Solvent” for “Enzyme and Solvent”, “screening” for “Screening”, “SOP deacylation.” for “SOA Deacetylation.”, “lipase AY 30” for “powdered enzyme as received”, “protease type XXIII” for “prepared”, “octapropionate (SOP) and 200mM butanol” for “octaacetate (SOA)”

[4] = target: T1, alcalase (Bacillus licheniformis, UniProt P00780); experiment: Nucleophile screening for alcalase catalyzed deacetylation of SOA in diisopropyl ether; format: biochemical; details: for increase in conversion relative to reaction with no added nucleophile: 200 mM
T1 construct: purchased Novo Nordisk (gift)
T1 sequence (P00780 106-379): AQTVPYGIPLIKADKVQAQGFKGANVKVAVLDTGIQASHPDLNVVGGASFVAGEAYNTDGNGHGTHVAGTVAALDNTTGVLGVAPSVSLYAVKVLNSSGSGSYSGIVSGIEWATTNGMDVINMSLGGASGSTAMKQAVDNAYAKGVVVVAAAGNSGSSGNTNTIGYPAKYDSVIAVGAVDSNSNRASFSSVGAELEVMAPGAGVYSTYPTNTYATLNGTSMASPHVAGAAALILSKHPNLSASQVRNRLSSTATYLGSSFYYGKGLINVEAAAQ
Procedure: (§3) Nucleophile screening for alcalase, proleather or lipase AP 12 catalyzed deacetylation of SOA. A scintillation vial was charged successively with 100 mg of powdered enzyme prepared as described, 1.0 ml of 20 mM sucrose octaacetate (SOA) and 200 mM of the nucleophile dissolved in diisopropyl ether. Following a 5 sec sonication, the vial was incubated in a controlled-temperature shaker at 45° C. and 300 RPM for 66 hrs. A 200 μl aliquot of the reaction mixture was withdrawn and centrifuged. The supernatant was collected and evaporated under a stream of N2. The residue was reconstituted in 200 μl of acetonitrile and 10 μl of this solution was analyzed by HPLC. For screening concentration effects on enzyme activity, the same protocol was followed except the nucleophile concentration was varied from 0 to 2000 mM.

[5] = test system: proleather; experiment: Nucleophile screening for proleather catalyzed deacetylation of SOA in diisopropyl ether; format: biochemical, Bacillus subtilis; details: for % conv: 66 hrs
Procedure: as §3

[6] = test system: lipase AP 12; experiment: Nucleophile screening for lipase AP 12 catalyzed deacetylation of SOA in diisopropyl ether; format: biochemical, Aspergillus niger; details: for % conv: 66 hrs
Procedure: as §3

[7] = SOP deacylation catalyzed by pH precipitated enzymes in diisopropyl ether; format: biochemical
Procedure: To increase the number and/or activities of enzymes active with SOP, pH precipitation experiments, as described for SOA, were undertaken.
(§4) The pH of commercial powdered enzymes was adjusted in the following way: The enzyme (3 g) was dissolved in 25 ml of an appropriate buffer and the pH adjusted with dilute NaOH or citric/phosphoric acid solution. Cold acetone (37.5 ml at -20° C.) was added and the precipitate collected on a medium porosity glass funnel and dried overnight at 2 millitorr. The protein pellet was ground to a fine powder and equilibrated at 4° C. over saturated aqueous potassium carbonate (RH: 43%) for 24 hrs.

[8] = SOA deacetylation catalyzed by pH precipitated enzymes in diisopropyl ether; format: biochemical
Procedure: A wide variety of hydrolytic enzymes were initially screened for their ability to regioselectively deacetylate SOA in organic solvents. […] Enzyme activity is dependent upon the presence of a minimum shell of water surrounding the enzyme. […] It is known that one way to improve the catalytic power of an enzyme in organic solvent is to use it in the right ionic state.
as §4, §1

[9] = Activity and regioselectivity of enzymes for SOA deacetylation; format: biochemical; details: for regioselectivity of SOA deacetylation: in words
Procedure: An important aspect of this work was to assign, unequivocally, the structures of all sucrose hepta-, hexa-, and pentaacetates obtained by enzymatic deacetylation of SOA. These structures were assigned by perdeuterioacetylation followed by ^1 H-NMR, as described by Rathbone E. B., Carbohydr. Res., 205,402 (1990).
HPLC analysis. Routine screening was performed on a Supelcosil LC-18-DB column (150×4.6 mm, 5μ) using an isocratic mode with either acetonitrile/water (35/65) or acetonitrile/water (60/40) as eluant for reactions involving sucrose octaacetate (SOA) and sucrose octapropionate (SOP), respectively. All flow rates were 1.0 ml/min with UV detection at 220 nm. To identify all products from SOA deacetylation, a gradient mode was employed using 15% to 35% acetonitrile in water over 40 minutes followed by 35/65 acetonitrile/water isocratic elution for 20 minutes. To screen nucleophiles for SOA deacetylation, an isocratic elution mode was employed using 30/70 acetonitrile/water for 16 min followed by a gradient from 30% to 35% acetonitrile in water over 5 min and finally isocratic elution using 35/65 acetonitrile/water for 16 min. To assess the enzyme regiochemistry for SOA deacetylation, an isocratic elution mode was employed using 25/75 acetonitrile/water for 55 minutes.
Identification of the Sucrose Hepta, Hexa or Pentaacetates Obtained Enzymatically. The fraction of sucrose hepta, hexa or pentaacetates were identified as follows. The compound(s) of interest was dissolved in 1.0 ml 99.0 atom % pyridine--d5 followed by addition of 1.0 ml 99 +atom % acetic anhydride--d6. The resulting solution was shaken at 45° C. and 300 RPM for several hours until TLC analysis (silica gel, 9/1 CHCl3 /MeOH) indicated complete reaction. The reaction mixture was evaporated in vacuo and the residue washed several times with water to remove residual pyridine-d5 and/or acetic anhydride-d6. The resulting oily solid was dissolved in 5 ml off chloroform and passed through Whatmann 12.5 cm 1 PS silicone treated filter paper to remove water.
as §4, §1

[10] = nucleophile 200 mM, peak height ratio 1'-OH / 6'-OH heptaacetate
[11] = lipase AP 12, nucleophile 200 mM
[12] = methanol 20 mM, peak height ratio
[13] = methanol 50 mM, peak height ratio
[14] = methanol 100 mM, peak height ratio
[15] = methanol 200 mM (Table 10), peak height ratio
[16] = methanol 500 mM, peak height ratio
[17] = methanol 1000 mM, peak height ratio
[18] = methanol 2000 mM, peak height ratio
[19] = diisopropyl ether, 24 hrs incubation, HPLC
[20] = HPLC sucrose heptaacetate peak height

CC(C)=O [acetone]
SOA [1]: 98.6% | SheptaA [1]: 1.4% | ShexaA [1]: 0% | SheptaP's (8.3 min) [2]: 0.7% | SheptaP's (8.9 min) [2]: 0% | SheptaP's (9.9 min) [2]: 0.2% | SOP [2]: 99.1% | ShexaP (4.2 min) [3]: 0% | SheptaP's (8.9 min) [3]: 0% | SheptaP's (9.4 min) [3]: 0.1% | SheptaP's ([…]) [3]: 1.2% | SOA [3]: 98.7%

CC#N [acetonitrile]
SOA [1]: 98.6% | SheptaA [1]: 1.4% | ShexaA [1]: 0% | SheptaP's (8.3 min) [2]: 1.1% | SheptaP's (8.9 min) [2]: 0% | SheptaP's (9.9 min) [2]: 0.5% | SOP [2]: 98.4% | ShexaP (4.2 min) [3]: 0% | SheptaP's (8.9 min) [3]: 0% | SheptaP's (9.4 min) [3]: 0.2% | SheptaP's ([…]) [3]: 1.1% | SOA [3]: 98.7%

CCC(C)=O [butanone]
SheptaP's (8.3 min) [2]: 1.0% | SheptaP's (8.9 min) [2]: 0% | SheptaP's (9.9 min) [2]: 0.2% | SOP [2]: 98.8% | ShexaP (4.2 min) [3]: 0% | SheptaP's (8.9 min) [3]: 0% | SheptaP's (9.4 min) [3]: 0.2% | SheptaP's ([…]) [3]: 0.9% | SOA [3]: 98.9%

OC1CCCCC1 [cyclohexanol]
SOA [1]: 96.8% | SheptaA [1]: 2.9% | ShexaA [1]: 0.3% | regiochem [4, 10]: 8.0 | % conv ([5]; nucleophile 200 mM): 38.2% | regiochem [5, 10]: 3.9 | % conv [6, 11]: 25.0%

CC(C)NC(C)C [diisopropylamine]
increase in conversion relative to reaction with no added nucleophile [4]: at least 25% | regiochem [4, 10]: 9.5 | % conv ([5]; nucleophile 200 mM): 37.3% | regiochem [5, 10]: 4.9 | % conv [6, 11]: 3.2%

CCO [ethanol]
regiochem [4, 10]: 7.5 | % conv ([5]; nucleophile 200 mM): 47.7% | regiochem [5, 10]: 5.6 | % conv [6, 11]: 26.7%

CO [methanol]
increase in conversion relative to reaction with no added nucleophile [4]: at least 25% | enhancement in overall conversion ([4]; 0.5M methanol, in words): modest enhancements in overall conversion | regiochem [4, 12]: 7.4 | regiochem [4, 13]: 8.3 | regiochem [4, 14]: 8.1 | regiochem [4, 15]: 8.6 | regiochem [4, 16]: 8.2 | regiochem [4, 17]: 5.6 | regiochem [4, 18]: 7.1 | regiochem [4, 10]: 8.6 | increase in conversion ([5]; 1.0M methanol): 120% | % conv ([5]; methanol 20 mM): 38.1% | regiochem [5, 12]: 4.8 | % conv ([5]; methanol 50 mM): 41.2% | regiochem [5, 13]: 5.9 | % conv ([5]; methanol 100 mM): 44.6% | regiochem [5, 14]: 6.6 | % conv ([5]; methanol 200 mM (Table 10)): 49.4% | regiochem [5, 15]: 7.9 | % conv ([5]; methanol 500 mM): 65.4% | regiochem [5, 16]: 12.4 | % conv ([5]; methanol 1000 mM): 71.1% | regiochem [5, 17]: 12.6 | % conv ([5]; methanol 2000 mM): 66.8% | regiochem [5, 18]: 11.5 | % conv ([5]; nucleophile 200 mM): 53.8% | regiochem [5, 10]: 8.4 | enhancement in overall conversion ([6]; lipase AP 12, 1.0M methanol, in words): modest enhancements in overall conversion | % conv ([6]; lipase AP 12, methanol 20 mM): 22.4% | % conv ([6]; lipase AP 12, methanol 50 mM): 23.5% | % conv ([6]; lipase AP 12, methanol 100 mM): 25.7% | % conv ([6]; lipase AP 12, methanol 200 mM (Table 10)): 24.0% | % conv ([6]; lipase AP 12, methanol 500 mM): 31.3% | % conv ([6]; lipase AP 12, methanol 1000 mM): 33.4% | % conv ([6]; lipase AP 12, methanol 2000 mM): 21.3% | % conv [6, 11]: 28.2%

OCCc1ccccc1 [phenethyl alcohol]
regiochem [4, 10]: 7.3 | % conv ([5]; nucleophile 200 mM): 51.5% | regiochem [5, 10]: 5.3 | % conv [6, 11]: 25.7%

CCCO [propanol]
regiochem [4, 10]: 8.8 | % conv ([5]; nucleophile 200 mM): 46.4% | regiochem [5, 10]: 5.3 | % conv [6, 11]: 26.2%

B1: alcalase: Novo Nordisk, Bacillus licheniformis (protein, UniProt P00780 106-379, looked up)
Subtilisin Carlsberg: T1 sequence (P00780 106-379)
buffer pH (optimal pH for enzyme activity in anhydrous media) ([7]; SOP deacylation): 9.0 | SOP ([7]; diisopropyl ether, 24 hrs): 81.8% | SheptaP's ([7]; diisopropyl ether, 24 hrs): 15.9% | ShexaP's ([7]; diisopropyl ether, 24 hrs): 2.3% | capability of deacetylating SOP ([7]; pH precipitated, in words): capable of deacetylating SOP | buffer pH (optimal pH for enzyme activity in anhydrous solvents) ([8]; SOA deacetylation): 9.0 | SheptaAs [8, 19]: 39.7% | ShexaAs [8, 19]: 10.9% | SOA ([8]; residual SOA, diisopropyl ether, 24 hrs incubation, HPLC): 49.4% | regiochemistry 1'OH [9, 20]: 13 | regiochemistry 6'OH [9, 20]: 2 | buffer pH (optimal pH for enzyme activity in anhydrous diisopropyl ether) ([9]; SOA deacetylation): 9.0 | regioselectivity of SOA deacetylation [9]: primarily at 1'- position with some reaction occurring at the 6'- position | regioselectivity of SOA deacetylation ([9]; listed as Alcalase): at the 1' position and secondarily at the 6' position | % conv ([9]; total of all sucrose hepta and hexa acetates): 28.1%
